Laboratory results published in patent US20090270440A1, “BIOAVAILABILITY OF ACTIVE SUBSTANCES HAVING AN AMIDINE FUNCTION IN MEDICAMENTS” (Drite Patentportfolio Beteilligungsgesellschaft mbH & Co. KG, priority 2006, published 2009).

Assays:
[1] = Oral bioavailability and metabolism study of N,N′-dihydroxybenzamidine in pigs (plasma levels by HPLC); assay type: in vivo
Procedure: Metabolism of N,N′-dihydroxybenzamidine to benzamidine in vivo proceeds in the following way:
In order to be able to ascertain the exact dosage of the substances, the animals were weighed once a week. The daily weight gain was calculated from the data. The substances to be administered orally were mixed into the moistened, ground feed concentrate. The substances given intravenously were dissolved in 0.9% NaCl solution in order to avoid hemolysis.
Directly before injection into the indwelling vein catheter, the solution was filtered in order to avoid induction of thrombus formation by any undissolved portions. The injection was followed by flushing with at least 10 ml of 0.9% NaCl solution again. The substance was administered in the morning on each occasion. A washout period took place the next day on each occasion in order to ensure complete excretion of the medicinal substance.
The orally administered doses of N,N′-dihydroxy-benzamidine were in each case 10 mg/kg of body weight (BW). The concentration of the substances administered intravenously as bolus was 2 mg/kg BW. Benzamidine and N,N′-dihydroxybenzamidine were likewise administered intravenously. The samples were taken at previously fixed times. The experimental period for one condition lasted one day. The blood samples were obtained over a period of 24 hours after administration of the substance. After oral administration, the samples were taken after 0, 30, 60, 90, 120, 150, 180, 240, 360, 480, 720 and 1440 minutes. After intravenous administration, an additional sample was taken after 5 and 15 minutes. The whole blood obtained was transferred into heparin tubes and centrifuged (4° C., 10 min, 1500 g). After centrifugation, about 4 ml of plasma were removed as supernatant, pipetted into Eppendorf vessels and frozen at −80° C. The plasma samples were slowly thawed and then centrifuged at 7000 rpm for 3 minutes, worked up by solid-phase extraction and passed on for HPLC.

[2] = literature value (Clement, Lopian 2003); cited from earlier work

SMILES	Reduction of prodrug to the active form (amidine) in the blood ([1]; after oral administration)	Metabolite benzamide oxime in plasma after injection ([1]; i.v. 2 mg/kg BW)	Reduction of prodrug to the amidine after injection ([1]; i.v. 2 mg/kg BW)	Absorption after oral administration ([1]; oral 10 mg/kg BW)	Oral bioavailability [2] [%]
O/N=C(/NO)c1ccccc1 [N,N′-dihydroxybenzamidine]	rapidly reduced to the active form	benzamide oxime also being detectable	rapidly reduced to the amidine	almost completely absorbed	
N=C(N)c1ccc(CNC(=O)[C@@H]2CCN2C(=O)[C@H](NCC(=O)O)C2CCCCC2)cc1 [melagatran]					7
CCOC(=O)CN[C@@H](C(=O)N1CC[C@H]1C(=O)NCc1ccc(/C(N)=N\O)cc1)C1CCCCC1 [ximelagatran]					14
